According to patent US9969724B2, “Factor IXa inhibitors” (Merck Sharp & Dohme Corp., priority 2014, dated 2018):

Target: human factor IXa (Homo sapiens (Human), UniProt P00740)
Experiment: Determination of Inhibitory Activity Against Factor IXa
Type: biochemical
Details: Factor IXa enzyme assay human; read-out: FIXa IC50
Experimental: Inhibitory activity against factor IXa was tested using the substrate SPECTROFLUOR FIXa (american diagnostica inc.; 500 West Avenue, Stamford, Conn. 06902 USA; Pr. No. 299F) and human factor IXa (american diagnostica inc.; Pr. No. 449b). Test substances were dissolved in buffer A (50 mM α,α,α-tris(hydroxymethyl) methylamine (Tris), 100 mM NaCl, 5 mM CaCl2, 15% (v/v) ethylene glycol, pH 8.0) were mixed with factor IXa (0.1 μg/ml final concentration). The enzyme reaction was started by addition of SPECTROFLUOR FIXa (100 μM final concentration). After incubation for 60 minutes at room temperature, the reaction was stopped by the addition of 20% (v/v) acetic acid solution, and then the fluorescence value was measured (Excitation Wavelength: 355 nm, Emission Wavelength; 460 nm) in a microtiter plate reader (ARVO 1420 Multilabel Counter; PerkinElmer).
The IC50 was calculated from a dilution series of the test substance with the aid of the software, Symyx Assay Explorer (Symyx Technologies, Inc.).

human factor IXa, sequence (P00740 227-461): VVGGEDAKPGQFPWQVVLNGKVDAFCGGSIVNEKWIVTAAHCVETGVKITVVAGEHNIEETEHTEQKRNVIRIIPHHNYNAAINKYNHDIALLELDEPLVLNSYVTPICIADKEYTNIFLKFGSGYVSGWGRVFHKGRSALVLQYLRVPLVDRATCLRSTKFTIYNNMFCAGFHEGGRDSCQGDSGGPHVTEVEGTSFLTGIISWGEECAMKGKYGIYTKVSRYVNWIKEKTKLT
human factor IXa, sequence (P00740 47-191 partner): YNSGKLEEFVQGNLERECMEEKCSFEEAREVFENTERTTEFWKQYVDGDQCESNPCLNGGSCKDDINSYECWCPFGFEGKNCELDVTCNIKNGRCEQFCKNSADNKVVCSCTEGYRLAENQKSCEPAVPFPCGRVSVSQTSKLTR

An IC50 of no more than 100 nM was found for `C[C@H]1CN(c2cccc3c(N)noc23)C[C@]1(C)NC(=O)c1c(Cl)cc(-n2cnnc2)cc1Cl` (relative stereo) [Example 7, N-((3R*,4S*)-1-(3-Aminobenzo[d]isoxazol-7-yl)-3,4-dimethylpyrrolidin-3-yl)-2,6-dichloro-4-(4H-1,2,4-triazol-4-yl)benzamide] in this work.
